Values quoted from earlier work, collected in patent US20040197891A1, “Removal of plasmin(ogen) from protein solutions” (priority 2001, published 2004).
Like-named read-outs stand apart in the source and are kept apart here.

Tests used:
[1] = test system: plasmin(ogen)
[2] = test system: fibrinolytic activity of plasma
[3] = plasma that has been heparinized oral blood

Compound	antifibrinolytic activity compared with EACA [1]	inhibition (anti-fibrinolytic activity) [2, 3]	inhibition (anti-fibrinolytic activity) ([2]; urokinase-stimulated plasma)	antifibrinolytic potency [1]
N=C(N)c1ccc(N)cc1 [PAMBA, p-amino benzamidine]	about three	–	–	–
NCCCCCC(=O)O [ε-amino-caproic acid, ε-amino caproic acid]	–	65%	98%	–
NC[C@H]1CC[C@H](C(=O)O)CC1 [tranexamic acid]	–	39%	91%	–
NCCCC[C@H](N)C(=O)O [lysine]	–	–	–	very low
